Values joined by “and” are separate entries in the source; they are usually repeats but may differ in a detail not shown here. Equal entries are not always repeated. Toxic doses and inconclusive results are not listed.

In PubChem BioAssay AID248 (DTP/NCI, 2004) one finds T/C data, which are given here for 15 compounds.

The subject of this assay is L1210 leukemia ip in BDF1 mice, survival T/C. Nature of the assay: NCI In Vivo Anticancer Drug Screen. Data for tumor model L1210 Leukemia (intraperitoneal) in B6D2F1 (BDF1) mice. The settings on record: endpoint: mean survival time, higher = longer survival. The gist of the method: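 Mice bearing the transplanted tumor received compound or vehicle. Survival of the treated group was divided by that of the vehicle-treated control group to give the ratio.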

[1] abbreviates: dose: 25.0 mg/kg/injection, schedule: Q01DX009 (ip), vehicle: saline.
Where [2] appears, read: dose: 25.0 mg/kg/injection, schedule: Q04DX003 (ip), vehicle: saline.
[3] abbreviates: dose: 50.0 mg/kg/injection, schedule: Q04DX003 (ip), vehicle: saline.
[4] abbreviates: dose: 200.0 mg/kg/injection, schedule: Q04DX003 (ip), vehicle: saline with Tween-80.
Setting [5] is: dose: 100.0 mg/kg/injection, schedule: Q01DX009 (ip), vehicle: saline with Tween-80.
[6] abbreviates: dose: 200.0 mg/kg/injection, schedule: Q01DX009 (ip), vehicle: saline with Tween-80.
Where [7] appears, read: dose: 400.0 mg/kg/injection, schedule: Q01DX009 (ip), vehicle: saline with Tween-80.
[8] abbreviates: dose: 25.0 mg/kg/injection, schedule: Q01DX009 (ip), vehicle: Klucel (hydroxypropylcellulose) (HPC).
[9] abbreviates: dose: 50.0 mg/kg/injection, schedule: Q01DX009 (ip), vehicle: Klucel (hydroxypropylcellulose) (HPC).
The mark [10] stands for this setting: dose: 100.0 mg/kg/injection, schedule: Q01DX009 (ip), vehicle: Klucel (hydroxypropylcellulose) (HPC).
The mark [11] stands for this setting: dose: 100.0 mg/kg/injection, schedule: Q04DX003 (ip), vehicle: Klucel (hydroxypropylcellulose) (HPC).

With `COc1ccc(-c2nc3ncnc(N)c3[nH]2)cc1`, the T/C runs as follows: (dose: 12.5 mg/kg/injection, schedule: Q01DX001 (ip), vehicle: saline with Tween-80) 102 % of control; (dose: 25.0 mg/kg/injection, schedule: Q01DX001 (ip), vehicle: saline with Tween-80) 109 % of control; (dose: 50.0 mg/kg/injection, schedule: Q01DX001 (ip), vehicle: saline with Tween-80) 106 % of control.
In the case of `COC1C(O)C(O)C(O)C(O)C1OS(=O)(=O)c1ccc(C)cc1` (stereo unspecified), the T/C by setting is: (dose: 375.0 mg/kg/injection, schedule: Q01DX001 (ip), vehicle: carboxymethylcellulose (CMC)) 105 % of control; (dose: 750.0 mg/kg/injection, schedule: Q01DX001 (ip), vehicle: carboxymethylcellulose (CMC)) 107 % of control; (dose: 1500.0 mg/kg/injection, schedule: Q01DX001 (ip), vehicle: carboxymethylcellulose (CMC)) 98 % of control.
Consider `Cc1nc2ccc(O)cc2cc1CBr`, for which the T/C (dose: 6.25 mg/kg/injection, schedule: Q01DX009 (ip), vehicle: saline) is 112 % of control; the T/C (dose: 12.5 mg/kg/injection, schedule: Q01DX009 (ip), vehicle: saline) was 104 % of control; the T/C (dose: 12.5 mg/kg/injection, schedule: Q04DX003 (ip), vehicle: saline) was 107 % of control; the T/C under setting [1] was 106 % of control; the T/C under setting [2] was 115 % of control; the T/C under setting [3] was 97 % of control.
On to `O=[N+]([O-])c1ccccc1CSc1ncnc2nc[nH]c12`, for which the T/C was 102 % of control (dose: 132.0 mg/kg/injection, schedule: Q04DX003 (ip), vehicle: saline with Tween-80); 100 % of control under setting [4]; 105 % of control (dose: 300.0 mg/kg/injection, schedule: Q04DX003 (ip), vehicle: saline with Tween-80).
Regarding `O=C1c2ccccc2C(=O)N1CNc1ccccc1Cl`, the T/C is, setting by setting: under setting [5], 93 % of control; (dose: 100.0 mg/kg/injection, schedule: Q04DX002 (ip), vehicle: saline with Tween-80) 98 % of control; under setting [6], 93 % of control; (dose: 200.0 mg/kg/injection, schedule: Q04DX002 (ip), vehicle: saline with Tween-80) 91 % of control; under setting [7], 100 % of control; (dose: 400.0 mg/kg/injection, schedule: Q04DX002 (ip), vehicle: saline with Tween-80) 88 % of control.
Consider `O=P1(N(CCCl)CCCl)NC(OO)CCO1` (stereo unspecified), for which the T/C (dose: 200.0 mg/kg/injection, schedule: Q01DX001 (ip), vehicle: DMSO) is 270 % of control.
For the compound `CCC(=O)c1ccc(OCC(O)CN2CCN(c3ccccc3Cl)CC2)cc1` (stereo unspecified), the T/C (dose: 100.0 mg/kg/injection, schedule: Q01DX001 (ip), vehicle: saline with Tween-80) is 101 % of control; the T/C under setting [5] is 95 % of control; the T/C (dose: 200.0 mg/kg/injection, schedule: Q01DX001 (ip), vehicle: saline with Tween-80) was 104 % of control; the T/C under setting [6] was 95 % of control; the T/C (dose: 400.0 mg/kg/injection, schedule: Q01DX001 (ip), vehicle: saline with Tween-80) was 102 % of control; the T/C under setting [7] is 88 % of control.
On to `Cc1cccc(NC(=O)NC2CCCCC2)c1C`, for which the T/C is 111 % of control (dose: 100.0 mg/kg/injection, schedule: Q04DX002 (ip), vehicle: Klucel (hydroxypropylcellulose) (HPC)); 99 % of control (dose: 200.0 mg/kg/injection, schedule: Q04DX002 (ip), vehicle: Klucel (hydroxypropylcellulose) (HPC)); 86 % of control (dose: 400.0 mg/kg/injection, schedule: Q04DX002 (ip), vehicle: Klucel (hydroxypropylcellulose) (HPC)).
As to `CCCCCCCCCCCCCCCCCCCCCCOC(=O)CCC(=O)OCCCCCCCCCCCCCCCCCCCCCC`, the T/C is 86 % of control (dose: 100.0 mg/kg/injection, schedule: Q01DX009 (ip), vehicle: gum acacia); 95 % of control (dose: 100.0 mg/kg/injection, schedule: Q04DX003 (ip), vehicle: gum acacia); 86 % of control (dose: 200.0 mg/kg/injection, schedule: Q01DX009 (ip), vehicle: gum acacia); 92 % of control (dose: 200.0 mg/kg/injection, schedule: Q04DX003 (ip), vehicle: gum acacia); 92 % of control (dose: 400.0 mg/kg/injection, schedule: Q04DX003 (ip), vehicle: gum acacia).
Turning to `CC(=O)N(C)N=Nc1ccc(C)cc1`, the T/C runs as follows: under setting [8], 116 % of control; (dose: 25.0 mg/kg/injection, schedule: Q04DX003 (ip), vehicle: other) 101 % of control; under setting [9], 110 % of control; (dose: 50.0 mg/kg/injection, schedule: Q04DX003 (ip), vehicle: other) 106 % of control; under setting [10], 102 % of control and 108 % of control; (dose: 100.0 mg/kg/injection, schedule: Q04DX003 (ip), vehicle: other) 118 % of control. The T/C by setting is: (dose: 200.0 mg/kg/injection, schedule: Q04DX003 (ip), vehicle: other) 123 % of control; (dose: 400.0 mg/kg/injection, schedule: Q01DX009 (ip), vehicle: Klucel (hydroxypropylcellulose) (HPC)) 105 % of control and 123 % of control.
On to `c1coc(CNc2ncnc3nc[nH]c23)c1`, for which the T/C runs as follows: (dose: 75.0 mg/kg/injection, schedule: Q01DX001 (ip), vehicle: other) 92 % of control; (dose: 75.0 mg/kg/injection, schedule: Q01DX009 (ip), vehicle: Klucel (hydroxypropylcellulose) (HPC)) 103 % of control; (dose: 150.0 mg/kg/injection, schedule: Q01DX001 (ip), vehicle: other) 98 % of control; (dose: 150.0 mg/kg/injection, schedule: Q01DX009 (ip), vehicle: Klucel (hydroxypropylcellulose) (HPC)) 97 % of control; (dose: 300.0 mg/kg/injection, schedule: Q01DX001 (ip), vehicle: other) 97 % of control; (dose: 300.0 mg/kg/injection, schedule: Q01DX009 (ip), vehicle: Klucel (hydroxypropylcellulose) (HPC)) 106 % of control.
On to `CC(CN(C)C)C(=O)c1ccccc1` (stereo unspecified), for which the T/C runs as follows: under setting [8], 106 % of control; under setting [1], 105 % of control and 104 % of control; (dose: 25.0 mg/kg/injection, schedule: Q04DX002 (ip), vehicle: saline) 104 % of control; (dose: 25.0 mg/kg/injection, schedule: Q04DX003 (ip), vehicle: Klucel (hydroxypropylcellulose) (HPC)) 91 % of control; under setting [2], 98 % of control; under setting [9], 101 % of control. Also, the T/C is 110 % of control and 100 % of control (dose: 50.0 mg/kg/injection, schedule: Q01DX009 (ip), vehicle: saline); 96 % of control (dose: 50.0 mg/kg/injection, schedule: Q04DX002 (ip), vehicle: saline); 100 % of control (dose: 50.0 mg/kg/injection, schedule: Q04DX003 (ip), vehicle: Klucel (hydroxypropylcellulose) (HPC)); 88 % of control under setting [3]; 108 % of control under setting [10]; 102 % of control and 96 % of control (dose: 100.0 mg/kg/injection, schedule: Q01DX009 (ip), vehicle: saline). For the same compound, the T/C runs as follows: (dose: 100.0 mg/kg/injection, schedule: Q04DX002 (ip), vehicle: saline) 96 % of control; under setting [11], 101 % of control and 102 % of control; (dose: 100.0 mg/kg/injection, schedule: Q04DX003 (ip), vehicle: saline) 96 % of control and 103 % of control.
In the case of `Clc1ccc2c(c1)/C(=C/c1cccnc1)c1cc(Cl)cc(Cl)c1-2`, the T/C under setting [10] was 93 % of control; the T/C under setting [11] is 88 % of control; the T/C (dose: 200.0 mg/kg/injection, schedule: Q01DX001 (ip), vehicle: Klucel (hydroxypropylcellulose) (HPC)) is 94 % of control; the T/C (dose: 200.0 mg/kg/injection, schedule: Q01DX009 (ip), vehicle: Klucel (hydroxypropylcellulose) (HPC)) is 90 % of control; the T/C (dose: 200.0 mg/kg/injection, schedule: Q04DX003 (ip), vehicle: Klucel (hydroxypropylcellulose) (HPC)) is 95 % of control; the T/C (dose: 400.0 mg/kg/injection, schedule: Q01DX001 (ip), vehicle: Klucel (hydroxypropylcellulose) (HPC)) is 90 % of control. In addition, the T/C (dose: 400.0 mg/kg/injection, schedule: Q04DX003 (ip), vehicle: Klucel (hydroxypropylcellulose) (HPC)) is 88 % of control.
As for `CNS(=O)(=O)c1c(C)cccc1CC(=O)c1ccccc1`, the T/C is 96 % of control (dose: 100.0 mg/kg/injection, schedule: Q01DX001 (ip), vehicle: steriod suspending solution) and 94 % of control (dose: 400.0 mg/kg/injection, schedule: Q01DX001 (ip), vehicle: steriod suspending solution).
With `[Ni+2].[O-]c1ccc(Cl)cc1C=NCc1ccccn1.[O-]c1ccc(Cl)cc1C=NCc1ccccn1`, the T/C (dose: 100.0 mg/kg/injection, schedule: Q04DX003 (ip), vehicle: saline with Tween-80) was 93 % of control and the T/C under setting [4] is 93 % of control.
